Data as given in patent publication US6670370B1 (priority 2001, dated 2003).
Structures can show the parent of a compound that is named as a salt. Where two headings read alike, the source gives them in different places.

Tests used:
[1] = Solubility in water (descriptive); settings: physical properties stated in detailed description
[2] = background statement on known substance, cited from earlier work
[3] = Tap density of milled dextromethorphan tannate powders; format: physicochemical; settings: dried to moisture level (K.F.) of 5%, milled to particle size of about 100 mesh

Compound	solubility in water [2]	Tap Density [3] [g/cc]	other results
COc1ccc2c(c1)[C@]13CCCC[C@@H]1[C@H](C2)N(C)CC3 [dextromethorphan free base, 3-methoxy-17-methyl-9α, 13α, 14α-morphinan]	insoluble		solubility in water [1]: insoluble
O=C(OC[C@H]1O[C@@H](OC(=O)c2cc(O)c(O)c(OC(=O)c3cc(O)c(O)c(O)c3)c2)[C@H](OC(=O)c2cc(O)c(O)c(OC(=O)c3cc(O)c(O)c(O)c3)c2)[C@@H](OC(=O)c2cc(O)c(O)c(OC(=O)c3cc(O)c(O)c(O)c3)c2)[C@@H]1OC(=O)c1cc(O)c(O)c(OC(=O)c2cc(O)c(O)c(O)c2)c1)c1cc(O)c(O)c(OC(=O)c2cc(O)c(O)c(O)c2)c1 [tannic acid]	highly soluble		
dextromethorphan tannate [Commercially available D-M Tannate]		0.313	
dextromethorphan tannate [D-M Tannate of the invention]		0.723	
dextromethorphan tannate [D-M Tannate synthesized by IPA route (Example 5)]		0.321	
COc1ccc2c(c1)[C@]13CCCC[C@@H]1[C@H](C2)N(C)CC3 [hydrobromide monohydrate salt, dextromethorphan hydrobromide monohydrate]			solubility in water ([2]; hydrobromide monohydrate): soluble
